Measurements: patent US20260284075A1, “UNIT DOSAGE COMPOSITION COMPRISING MIDAZOLAM” (B. Braun Melsungen AG, priority 2023, published 2026)

Experiment: Pharmacokinetic evaluation of oral thin films in dogs (midazolam in plasma, LC-MS/MS)
Type: in vivo, Marshall Beagle dogs
Conditions: from cyclodextrin-containing films
Experimental: To investigate the local tolerability and pharmacokinetics of the four oral thin films prepared according to Example 1, the oral thin films containing 3.0 mg of midazolam HCl (corresponding to 2.7 mg of midazolam free base) were subsequently applied to 6 non-naïve Marshall Beagle dogs (3 male weighing 8.6-11 kg and 3 female weighing 7.5-8.1 kg) with at least 3 days washout phase between the treatments. DORMICUM® 7.5 mg tablets and a Midazolam 5 mg/mL solution for injection/infusion (obtained from B. Braun) were used as reference. The dogs were fastened before dose administration and during the period of the experiment. On the days of treatment, the animals were offered their first daily meal after collection of the blood sample 2 hours after dose, and the second meal of the day was given after collection of the blood sample 6 hours after dose.
Blood samples were taken from the dogs before the treatment, and 2, 5, 10, 30, 60, 120, and 360 minutes after the dose administration. Blood samples of approximately 2 mL were collected from the saphenous vein. […]
The concentration of midazolam in the blood samples was determined using validated liquid chromatography-mass spectrometry (LC-MS/MS) methods. […] The concentration of analytes in unknown samples was calculated using the analyte/internal standard area ratios. […] It was well mixed and the samples analyzed by using LC-MS/MS.

Cc1ncc2n1-c1ccc(Cl)cc1C(c1ccccc1F)=NC2 [midazolam, 8-chloro-6-(2-fluoropheny)-1-methyl-4H-imidazo[1,5-α][1,4]benzodiazepine]
time within which midazolam is absorbed through the oral mucosa: ≤ 10 min
